Assay results: ChEMBL document CHEMBL1201862, “PubChem BioAssay data set” (2004)
The source made the active and inactive calls.

Experiments:
INS1 = test: beta cell apoptosis inhibitors, cytokine rescue, dose response, luminescence, retest (AID 449756); type: functional, cell-based; conditions: Rattus norvegicus;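 further: cell death triggered by IL-1 beta plus TNF-alpha plus IFN-gamma mixture; protective hits raise ATP signal compared with cytokine alone wells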
[1] = growth suppression of beta-catenin-knockout colon cells, dose response, cell-based, HCT116, human colon tumor (AID 1045); type: functional;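 further: HCT116 colon tumor cells with beta catenin knocked out; cells exposed to compound for 60 hours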
X-box-binding protein 1 = molecular target: T1, X-box-binding protein 1 (Homo sapiens, UniProt P17861); type: functional, Cricetulus griseus;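 further: confirmatory dose-response counter-screen serving a CHOP assay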
T1 sequence (P17861 whole entry): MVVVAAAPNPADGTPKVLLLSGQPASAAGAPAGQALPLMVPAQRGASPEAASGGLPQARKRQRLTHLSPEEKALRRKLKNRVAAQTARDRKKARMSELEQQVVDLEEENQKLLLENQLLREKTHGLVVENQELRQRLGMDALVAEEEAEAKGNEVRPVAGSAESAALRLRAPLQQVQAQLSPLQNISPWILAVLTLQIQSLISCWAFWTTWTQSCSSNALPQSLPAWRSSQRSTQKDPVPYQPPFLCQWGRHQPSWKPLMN

[2] = growth suppression of PTEN-null colon cells, dose response, cell-based, HCT116 PTEN knockout (AID 1047); type: functional;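 further: HCT116 colon tumor cells with PTEN knocked out; cells exposed to compound for 60 hours before readout; potency for loss of cell viability measured by luminescence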
[3] = Luminescence Cell-Based Dose Retest to Confirm Inhibitors of Cancer Stem Cells. [Related pubchem assays (depositor defined):AID2717, AID2721]; type: functional; conditions: Homo sapiens
Streptokinase A = molecular target: T2, Streptokinase A (Streptococcus pyogenes serotype M1, UniProt P10520); test: S. pyogenes streptokinase expression inhibitors, potency, dose response, plasminogen activation absorbance, OD405 (AID 1914); type: functional, Streptococcus pyogenes M1 GAS;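 further: secreted streptokinase activity via plasminogen activation per viability signal from cell pellet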
T2 sequence (P10520 whole entry): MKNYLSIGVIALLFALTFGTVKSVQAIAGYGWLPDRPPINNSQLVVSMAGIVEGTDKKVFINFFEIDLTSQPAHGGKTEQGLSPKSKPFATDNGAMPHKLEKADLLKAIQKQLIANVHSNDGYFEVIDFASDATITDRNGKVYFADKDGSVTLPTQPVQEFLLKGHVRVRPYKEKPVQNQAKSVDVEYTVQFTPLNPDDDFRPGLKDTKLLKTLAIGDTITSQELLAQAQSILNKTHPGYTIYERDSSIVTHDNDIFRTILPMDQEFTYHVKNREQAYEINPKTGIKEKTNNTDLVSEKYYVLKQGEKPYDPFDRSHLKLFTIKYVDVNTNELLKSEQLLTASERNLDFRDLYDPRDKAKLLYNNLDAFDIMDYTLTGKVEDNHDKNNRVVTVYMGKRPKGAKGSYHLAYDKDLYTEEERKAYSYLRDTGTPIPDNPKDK

Streptococcus = test: Group A Streptococcus viability loss, dose response, counter-screen for streptokinase expression inhibitor project, luminescence, BacTiterGlo (AID 1915); type: functional, organism-based;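 further: potency for reduction of bacterial viability or growth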
[4] = system: Streptococcus sp. 'group A'; test: growth inhibition of control SK(-) GAS strain, dose response, counter-screen for streptokinase expression inhibitor project, luminescence, kanamycin, BacTiterGlo, confirmation (AID 1900); type: functional, organism-based
[5] = molecular target: T3, Neuropeptide Y receptor type 2 (Homo sapiens, UniProt P49146); test: Fluorescence-based cell-based high-throughput dose response assay for agonists of NPY-Y2. [Related pubchem assays: 1703 (Screening assay (CNGC inhibitors).), 1359 (Screening assay (NPY-Y2 potentiators or agonists).), 1304 (Screening assay (NPY-Y1 potentiators or agonists).), 1710 (Screening assay (NPY-Y2 agonists).), 1791 (Summary AID.)]; type: functional
T3 sequence (P49146 whole entry): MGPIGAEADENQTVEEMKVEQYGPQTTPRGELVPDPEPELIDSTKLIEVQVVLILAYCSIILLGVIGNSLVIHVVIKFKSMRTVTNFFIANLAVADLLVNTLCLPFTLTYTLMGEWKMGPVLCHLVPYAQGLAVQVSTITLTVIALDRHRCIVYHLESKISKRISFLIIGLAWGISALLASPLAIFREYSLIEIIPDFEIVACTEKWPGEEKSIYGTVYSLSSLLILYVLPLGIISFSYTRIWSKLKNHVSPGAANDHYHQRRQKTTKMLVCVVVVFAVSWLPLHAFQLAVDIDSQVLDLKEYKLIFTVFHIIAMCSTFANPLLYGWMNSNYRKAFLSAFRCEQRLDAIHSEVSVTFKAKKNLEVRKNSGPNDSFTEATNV

HEK293 = test: Fluorescence-based counterscreen for potentiators or agonists of NPY-Y2: cell-based high-throughput dose response assay to identify inhibitors of cyclic nucleotide gated ion channel (CNGC) activity. In this assay, the parental HEK293 cell line transfected with a cyclic-nucleotide gated ion channel (CNGC)-based cAMP sensor is used to measure inhibition of isoproterenol-induced CNGC activity by test compound.; type: functional; conditions: Homo sapiens
[6] = molecular target: T4, Neuropeptide Y receptor type 1 (Homo sapiens, UniProt P25929); test: Fluorescence-based counterscreen for agonists of NPY-Y2: cell-based high-throughput dose response assay for agonists of NPY-Y1.; type: functional
T4 sequence (P25929 whole entry): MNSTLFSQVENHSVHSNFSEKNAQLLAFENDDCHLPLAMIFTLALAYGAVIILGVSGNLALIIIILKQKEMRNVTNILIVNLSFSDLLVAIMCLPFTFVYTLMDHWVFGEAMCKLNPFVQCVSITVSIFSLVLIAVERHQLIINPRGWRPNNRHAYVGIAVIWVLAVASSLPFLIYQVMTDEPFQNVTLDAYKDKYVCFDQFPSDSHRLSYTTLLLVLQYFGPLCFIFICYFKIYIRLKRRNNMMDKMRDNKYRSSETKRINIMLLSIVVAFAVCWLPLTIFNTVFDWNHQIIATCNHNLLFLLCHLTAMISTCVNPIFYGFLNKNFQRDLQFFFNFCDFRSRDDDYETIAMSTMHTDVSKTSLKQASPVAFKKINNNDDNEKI

[7] = cytotoxicity in HEK-293T cells, dose response, cytotoxicity control for BCR NF-kB inhibitor project, luminescence, B-cell screen hits (AID 489021); type: functional, cell-based;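 further: HEK-293T cells carrying an NF-kB luciferase reporter; cells exposed to compound for about 14 hours before viability readout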
Cytochrome P450 2C9 = Cytochrome P450 2C9 (Homo sapiens, UniProt P11712)
Cytochrome P450 2C19 = Cytochrome P450 2C19 (Homo sapiens, UniProt P33261); test: Cytochrome panel assay with activity outcomes. Panel member name: p450-cyp2c19 Compounds with AC50 equal or less than 10 uM are considered active; type: functional
[8] = molecular target: T5, C-C chemokine receptor type 6 (Homo sapiens, UniProt P51684); test: CCR6 receptor antagonists, dose response, cell-based, luminescent beta-arrestin readout (AID 504728); type: functional
T5 sequence (P51684 whole entry): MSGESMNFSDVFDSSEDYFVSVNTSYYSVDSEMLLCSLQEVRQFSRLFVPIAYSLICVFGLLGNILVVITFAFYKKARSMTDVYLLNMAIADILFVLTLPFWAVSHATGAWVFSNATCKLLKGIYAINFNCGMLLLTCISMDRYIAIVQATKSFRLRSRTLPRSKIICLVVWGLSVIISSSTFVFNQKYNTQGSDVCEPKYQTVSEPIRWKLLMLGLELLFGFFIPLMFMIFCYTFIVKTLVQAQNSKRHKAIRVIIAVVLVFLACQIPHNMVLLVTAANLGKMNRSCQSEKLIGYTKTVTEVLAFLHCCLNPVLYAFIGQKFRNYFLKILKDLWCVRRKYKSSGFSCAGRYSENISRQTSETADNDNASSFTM

cells [9] = type: functional, cell-based
Beta-galactosidase = Beta-galactosidase (Escherichia coli, UniProt Q8VNN2); test: beta-galactosidase enzyme inhibitors and activators, dose response, artefact control for CCR6 antagonist project, biochemical, E. coli enzyme, set 3 (AID 504712); type: functional
[10] = molecular target: Disintegrin and metalloproteinase domain-containing protein 17 (Homo sapiens, UniProt P78536); test: ADAM17 protease inhibitors, dose response, counter-screen for ADAM10 exosite inhibitor project, biochemical, quenched FRET substrate (AID 743253)
[11] = molecular target: Heat shock protein HSP 90-alpha (Homo sapiens, UniProt P07900); type: functional, organism-based
Nonstructural protein 1 = Nonstructural protein 1 (Influenza A virus, UniProt Q194T2); type: functional, Influenza A virus (A/California/07/2009(H1N1))
cells [12] = type: functional, cell-based; remark: listed apart in the source

Sequence of Cytochrome P450 2C19 (P33261 whole entry): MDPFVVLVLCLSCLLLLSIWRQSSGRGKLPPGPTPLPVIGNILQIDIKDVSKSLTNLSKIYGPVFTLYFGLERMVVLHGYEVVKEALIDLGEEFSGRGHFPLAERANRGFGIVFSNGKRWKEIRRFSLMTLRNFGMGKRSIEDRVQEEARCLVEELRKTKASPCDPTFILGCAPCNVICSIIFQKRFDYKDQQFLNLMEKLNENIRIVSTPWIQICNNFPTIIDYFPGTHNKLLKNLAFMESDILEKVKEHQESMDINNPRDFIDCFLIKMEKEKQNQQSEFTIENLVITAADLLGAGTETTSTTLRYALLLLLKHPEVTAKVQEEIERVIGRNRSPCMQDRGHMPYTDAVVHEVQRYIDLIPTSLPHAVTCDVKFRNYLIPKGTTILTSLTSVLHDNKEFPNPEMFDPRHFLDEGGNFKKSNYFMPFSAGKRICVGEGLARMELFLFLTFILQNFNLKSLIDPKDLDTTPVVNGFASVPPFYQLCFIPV
Sequence of Disintegrin and metalloproteinase domain-containing protein 17 (P78536 whole entry, the tested form may be a part): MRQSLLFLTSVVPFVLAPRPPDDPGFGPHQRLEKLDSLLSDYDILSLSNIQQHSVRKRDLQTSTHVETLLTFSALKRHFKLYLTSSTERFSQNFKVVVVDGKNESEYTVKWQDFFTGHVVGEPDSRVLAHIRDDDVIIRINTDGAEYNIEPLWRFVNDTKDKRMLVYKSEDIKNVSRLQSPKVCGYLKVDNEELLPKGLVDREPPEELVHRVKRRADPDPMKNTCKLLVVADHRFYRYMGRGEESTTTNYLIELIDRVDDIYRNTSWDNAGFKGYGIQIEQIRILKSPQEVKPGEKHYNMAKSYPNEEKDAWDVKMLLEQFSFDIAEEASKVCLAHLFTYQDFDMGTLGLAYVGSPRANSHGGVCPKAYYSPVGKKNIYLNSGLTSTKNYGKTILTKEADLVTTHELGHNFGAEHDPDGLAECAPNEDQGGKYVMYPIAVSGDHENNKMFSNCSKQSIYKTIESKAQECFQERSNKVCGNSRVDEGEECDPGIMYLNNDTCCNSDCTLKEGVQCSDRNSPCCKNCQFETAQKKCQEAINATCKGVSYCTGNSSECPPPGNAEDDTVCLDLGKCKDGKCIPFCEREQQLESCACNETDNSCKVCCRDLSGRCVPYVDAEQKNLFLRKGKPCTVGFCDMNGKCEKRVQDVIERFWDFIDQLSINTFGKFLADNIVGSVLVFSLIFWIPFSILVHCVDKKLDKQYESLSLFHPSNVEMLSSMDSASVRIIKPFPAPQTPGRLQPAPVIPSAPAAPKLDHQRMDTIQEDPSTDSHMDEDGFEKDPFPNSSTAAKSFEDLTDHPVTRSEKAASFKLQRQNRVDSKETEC
Sequence of Nonstructural protein 1 (Q194T2 whole entry): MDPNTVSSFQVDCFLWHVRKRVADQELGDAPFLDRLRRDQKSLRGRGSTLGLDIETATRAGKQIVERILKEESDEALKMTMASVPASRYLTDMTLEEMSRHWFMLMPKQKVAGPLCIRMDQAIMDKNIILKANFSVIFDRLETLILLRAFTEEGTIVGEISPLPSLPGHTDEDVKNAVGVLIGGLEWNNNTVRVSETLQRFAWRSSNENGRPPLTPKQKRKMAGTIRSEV
Sequence of Beta-galactosidase (Q8VNN2 whole entry, the tested form may be a part): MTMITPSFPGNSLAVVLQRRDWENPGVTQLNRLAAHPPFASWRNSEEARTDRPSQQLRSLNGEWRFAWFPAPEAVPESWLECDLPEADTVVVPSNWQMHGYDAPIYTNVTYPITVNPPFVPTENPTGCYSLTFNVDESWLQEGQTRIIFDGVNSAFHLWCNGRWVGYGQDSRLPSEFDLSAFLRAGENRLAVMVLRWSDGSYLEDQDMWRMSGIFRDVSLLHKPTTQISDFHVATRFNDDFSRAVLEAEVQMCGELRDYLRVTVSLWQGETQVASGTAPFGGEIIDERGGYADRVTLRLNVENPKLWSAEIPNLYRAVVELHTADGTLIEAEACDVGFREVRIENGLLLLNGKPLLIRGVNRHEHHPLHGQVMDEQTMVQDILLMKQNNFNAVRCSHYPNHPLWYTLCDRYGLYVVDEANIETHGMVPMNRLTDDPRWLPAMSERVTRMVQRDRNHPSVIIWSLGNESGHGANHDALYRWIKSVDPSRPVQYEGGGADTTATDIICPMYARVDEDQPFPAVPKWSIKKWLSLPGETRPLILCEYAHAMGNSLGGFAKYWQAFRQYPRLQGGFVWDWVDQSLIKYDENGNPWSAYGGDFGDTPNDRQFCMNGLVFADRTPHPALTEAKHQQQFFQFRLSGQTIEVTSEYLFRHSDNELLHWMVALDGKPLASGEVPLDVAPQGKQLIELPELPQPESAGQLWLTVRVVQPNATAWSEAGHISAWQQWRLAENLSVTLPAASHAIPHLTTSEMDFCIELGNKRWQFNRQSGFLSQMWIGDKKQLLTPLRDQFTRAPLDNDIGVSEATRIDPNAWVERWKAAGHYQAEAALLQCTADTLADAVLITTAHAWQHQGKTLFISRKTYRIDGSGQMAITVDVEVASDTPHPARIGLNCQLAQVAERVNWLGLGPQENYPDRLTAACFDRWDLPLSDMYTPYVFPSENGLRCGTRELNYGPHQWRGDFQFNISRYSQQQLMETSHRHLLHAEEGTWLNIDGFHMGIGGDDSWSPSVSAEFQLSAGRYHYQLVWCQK
Sequence of Cytochrome P450 2C9 (P11712 whole entry): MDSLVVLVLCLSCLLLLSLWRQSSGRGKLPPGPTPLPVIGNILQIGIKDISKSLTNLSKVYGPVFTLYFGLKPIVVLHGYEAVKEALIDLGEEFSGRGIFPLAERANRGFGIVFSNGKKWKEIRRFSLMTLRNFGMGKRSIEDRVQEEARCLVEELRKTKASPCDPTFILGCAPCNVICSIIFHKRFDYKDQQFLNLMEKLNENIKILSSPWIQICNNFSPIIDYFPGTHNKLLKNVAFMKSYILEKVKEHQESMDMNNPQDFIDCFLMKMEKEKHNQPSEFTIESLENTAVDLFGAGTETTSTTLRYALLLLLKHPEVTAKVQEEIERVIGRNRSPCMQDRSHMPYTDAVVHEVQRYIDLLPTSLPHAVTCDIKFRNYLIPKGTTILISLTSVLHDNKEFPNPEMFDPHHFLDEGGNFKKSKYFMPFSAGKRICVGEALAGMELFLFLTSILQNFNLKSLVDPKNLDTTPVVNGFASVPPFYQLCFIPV

## Cc1ccc(S(=O)(=O)Nc2ccc(NC(=O)Nc3cccc(C(F)(F)F)c3)cc2)cc1
INS1
  AC50: 8.16 µM (active)
[1]
  EC50: 12.9 µM (active)
X-box-binding protein 1
  Absolute IC50 (XBP1): 10 µM
[2]
  EC50: 9.49 µM (active)
[3]
  AC50: 1.36 µM (active)

## Nc1c(N(C(=O)Nc2ccc(Cl)c(Cl)c2)C2CCCC2)c(=O)[nH]c(=O)n1Cc1ccccc1
[1]
  EC50: 15.3 µM (active)
X-box-binding protein 1
  Absolute IC50 (XBP1): 10 µM
[2]
  EC50: 15.5 µM (active)

## COC(=O)/C(=C(/F)Sc1cc(C)c(O)c(C)c1)C(F)(F)F
X-box-binding protein 1
  Absolute IC50 (XBP1): 10 µM

## COCCCN1C(=O)/C(=C\c2nc(C#N)c(Nc3ccc(C)cc3)o2)SC1=S
Streptokinase A
  EC50: > 150 µM (not active)
Streptococcus
  EC50: > 150 µM (not active)
[4]
  EC50: 108 µM (active)
[5]
  EC50: > 35.4 µM (not active)
HEK293
  EC50: > 35.4 µM (not active)
[6]
  EC50: > 35.4 µM (not active)

## CCn1c(=O)c2cc(C(=O)NCc3cccs3)sc2c2ccccc21
[7]
  IC50: > 80 µM (inactive)

## Cc1ccc(-c2nn3c(C)nnc3c3ccccc23)cc1S(=O)(=O)NCCN1CCOCC1
Cytochrome P450 2C9
  AC50: 20 µM (inconclusive)
[7]
  IC50: > 80 µM (inactive)
Cytochrome P450 2C19
  AC50: inconclusive

## O=[N+]([O-])c1ccc(O)c(/C=N/Nc2ccccn2)c1
[8]
  IC50: > 66.6 µM (inactive)
Cells [9]
  EC50: > 350 µM (not active)
INS1
  AC50: 0.342 µM (active)
Beta-galactosidase
  IC50: > 66.6 µM (inactive)
[10]
  IC50: 9.75 µM (active)
[11]
  AC50: 3.97 µM (active)
Nonstructural protein 1
  IC50: 7.05 µM (active)
Cells [12]
  EC50: > 350 µM (not active)
